Laboratory results: patent US20030049666A1, “Tissue culture assay for measuring drug induced translational recoding at premature stop codons and frameshift mutations” (University of Utah, priority 2001, published 2003)

How the values were obtained:
[1] = test system: cystic fibrosis transmembrane conductance regulator (CFTR) protein; details: bronchial cell line carrying a nonsense mutation in the CFTR gene; cited from earlier work
[2] = test system: stop codons UGA N, UAG N, and UAA N; assay: dual luciferase (p2luc) stop codon readthrough assay in HEK293 cells; format: cell-based, human; details: for concentration at which maximal levels of stop codon readthrough were observed: aminoglycoside in growth media for 24 hours; for readthrough of UAA A stop codon: UAA A construct, tissue culture (HEK293)
Description: The p2luc dual luciferase reporter plasmid system, as described in U.S. Pat. No. 6,143,502, was used to measure the effect of aminoglycosides on stop codon readthrough in tissue culture cells. In this system, the renilla (sea pansy) luciferase and firefly luciferase reporter coding sequences are located on either side of a stop codon (FIG. 1). Stop codon and control constructs (containing a sense codon in place of the stop codon) are transfected in parallel in tissue culture cells. Expression of the upstream renilla luciferase gene provides a way to normalize for differences in transfection efficiencies, translation initiation, and mRNA levels between transfected cultures. […] M. R. Culbertson, RNA surveillance. Unforeseen consequences for gene expression, inherited generic disorders and cancer, 15 Trends Genet. 74-80 (1999). The ability of the dual reporter system to control for differences in mRNA levels between normal and nonsense-containing sequences provides a distinct advantage compared with single reporter or direct protein analysis. After normalization, the differences in downstream firefly luciferase activities between cultures transfected with the stop codon and control sense codon constructs reflect the frequency of stop codon readthrough.
(§1) The stop codons of SEQ ID NO: 1 through SEQ ID NO: 12 and SEQ ID NO: 25 were cloned between the two luciferase genes of p2luc, and control reporter plasmids (SEQ ID NO: 13-24) were produced by changing the first nucleotide of the stop codon to a C. More particularly, complimentary oligonucleotides corresponding to the sequences SEQ ID NO: 1 through SEQ ID NO: 25 were synthesized on an Applied Biosystems model 380C synthesizer (Foster City, Calif.) such that when annealed, they would have SalI- and BamHI-compatible ends. The oligonucleotides were ligated in SalI- and BamHI-digested p2luc vector according to methods well known in the art and transformed to Escherichia coli strain SU1675. DNA sequences were verified by autothermocycler sequencing, and plasmids were purified using the Qiagen Midiprep Kit (Valencia, Calif.) according to the manufacturer's specifications.
The oligonucleotides corresponding to SEQ ID NO: 1 through SEQ ID NO: 12 were identical except for nucleotides 13-16, which contained in-frame stop codons followed by a C, T, A, or G nucleotide. The oligonucleotides corresponding to SEQ ID NO: 13 through SEQ ID NO: 24 were the respective controls, which were identical to the oligonucleotides corresponding to SEQ ID NO: 1 through SEQ ID NO: 12 except the first nucleotide of the stop codon was replaced with a C nucleotide, thus changing the stop codon to a sense codon. The oligonucleotide corresponding to SEQ ID NO: 25 comprises the sequence surrounding the mdx mouse dystrophin mutation.
Translational readthrough of the stop codons of oligonucleotides corresponding to SEQ ID NO: 1 through SEQ ID NO: 12 was determined in a human embryonic kidney cell line (HEK293, e.g., ATCC CRL-1573) grown in the presence of varying amounts of G-418, gentamicin, and paromomycin, which have been particularly effective in inducing stop codon readthrough in yeast. A. Singh et al., Phenotypic suppression and misreading Saccharomyces cerevisiae, 277 Nature 146-148 (1979); E. Palmer et al., Phenotypic suppression of nonsense mutants in yeast by aminoglycoside antibiotics, 277 Nature 148-150 (1979). HEK293 cells were maintained as monolayer cultures growing in Dulbecco's Modified Eagle Medium with 1,000 mg/L of D-glucose, L-glutamine, pyridoxine hydrochloride, and 110 mg/L of sodium pyruvate supplemented with 10% fetal bovine serum and 50 units/ml penicillin/50 µg/ml streptomycin. All cells were incubated at 37° C. in an atmosphere of 5% CO2. All media, penicillin, and streptomycin were obtained from LifeTechnologies (Rockville, Md.); aminoglycosides were purchased from Sigma (St Louis, Mo.); and all sera were obtained from HyClone (Logan, Utah). […]

overall translation = assay: inhibition of translation monitored by reduction in renilla luciferase activity in control transfections; format: cell-based, human; details: highest concentration tested, HEK293 control transfections
Method: Transfections were performed using lipofectamine reagent (LifeTechnologies). HEK293 cells (0.15×10^5)were plated in 0.34-cm^2 wells and grown for 24 to 48 hours according to methods well known in the art. All cells were transfected with 0.3 μl of lipofectin and 0.075 μg of plasmid DNA for 15 hours, in serum-free media. Fresh media with serum and varying levels of aminoglycosides (Sigma) were then added, and incubation continued for 24 hours.
(§2) Cells were lysed using passive lysis buffer (Promega, Madison, Wis., and both renilla and firefly luciferase activities were determined using the dual luciferase reporter assay (Promega) on a Dynatech MLX Microtiter Plate Luminometer (Burlington, Mass.). For all reactions, light emission was measured for 2 to 12 seconds after 100μl of luminescence substrate was injected. Stop codon readthrough was calculated by comparing the ratio of firefly to renilla luciferase activity in cultures transfected with p2luc stop codon constructs and compared with ratios obtained from cultures transfected with p2luc control constructs.
A significant difference in stop codon readthrough induced by the aminoglycosides was observed between UGA, UAG, and UAA. […] The nucleotide in the fourth position immediately after the stop codon also contributed to the frequency of stop codon readthrough. This effect is particularly obvious for UGA N, where N=C>U>A≧G in order of most to least stop codon readthrough. […] Inhibition of translation was monitored by examining the reduction in renilla luciferase activity in control transfections.

dystrophin = details: cited from earlier work
[3] = test system: mdx premature stop codon / UGA C control; assay: dual luciferase stop codon readthrough assay in mouse myoblast C2C12 cell line; format: cell-based
Description: as §1, with “DNA sequences were verified by autothermocycler sequencing, and plasmids were purified using the Qiagen Midiprep Kit (Valencia, Calif.) according to the manufacturer's specifications.” left out
as §2, with “constructs. […]” for “constructs.”

reduction in overall translation (overall translation) | Compound | expression of CFTR protein [1] | stop codon readthrough on a mass basis, comparison of the three aminoglycosides ([2]; HEK293 cells) | concentration at which maximal levels of stop codon readthrough were observed ([2]; HEK293 cells) | readthrough of UAA A stop codon [2] | effect on premature stop codon in the dystrophin gene of the mdx mouse (dystrophin) | full-length dystrophin protein expressed on aminoglycoside treatment (dystrophin; mdx mouse) | gentamicin-induced readthrough of mdx sequence in C2C12 cells compared with UAA A construct in HEK293 cells [3]
little effect on translation | NC[C@@H]1O[C@H](O[C@H]2[C@@H](O)[C@H](O[C@@H]3[C@@H](O)[C@H](N)C[C@H](N)[C@H]3O[C@H]3O[C@H](CO)[C@@H](O)[C@H](O)[C@H]3N)O[C@@H]2CO)[C@H](N)[C@@H](O)[C@@H]1O [paromomycin] | – | – | 2 mg/mL | approximately 1% | – | – | –
~20% | gentamicin | restore the expression | – | – | approximately 1% | can partially reverse the effects of a premature stop codon | 10 to 20% | No increase

Compound | reduction in overall translation (overall translation) | expression of CFTR protein [1] | stop codon readthrough on a mass basis, comparison of the three aminoglycosides ([2]; HEK293 cells) | concentration at which maximal levels of stop codon readthrough were observed ([2]; HEK293 cells) | readthrough of UAA A stop codon [2] | effect on premature stop codon in the dystrophin gene of the mdx mouse (dystrophin) | full-length dystrophin protein expressed on aminoglycoside treatment (dystrophin; mdx mouse) | gentamicin-induced readthrough of mdx sequence in C2C12 cells compared with UAA A construct in HEK293 cells [3]
CN[C@@H]1[C@@H](O)[C@@H](O[C@@H]2[C@@H](O)[C@H](O[C@H]3O[C@H]([C@@H](C)O)[C@@H](O)[C@H](O)[C@H]3N)[C@@H](N)C[C@H]2N)OC[C@]1(C)O [G-418] | ~50% | restore the expression | induced the most readthrough on a mass basis | 0.4 mg/mL | approximately 1% | – | – | –
